Data reported in patent US20230203043A1, “NOVEL IMIDAZOPYRAZINE DERIVATIVES” (Hoffmann-La Roche Inc., priority 2020, published 2023).
Structures can show the parent of a compound that is named as a salt. Where two headings read alike, the source gives them in different places.

Tested on: Acinetobacter baumannii ATCC17961
Assay: Antimicrobial susceptibility testing: 90% growth inhibitory concentration (IC90) determination in Iso-Sensitest broth, OD600 growth
Type: cell-based
Conditions: Acinetobacter baumannii, ATCC17961, 16 h
In short: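 Serial twofold dilution, 10 points, e.g. 50–0.097 μM final; ~5×10^(5) CFU/ml; 35±2° C, 16 h; kinetic OD600 every 20 min; IC90 from log-phase inhibition.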

[1] = read-out: A. baumannii ATCC 17961 IC90 (uM), strain ATCC 17961, OD600 growth over 16 h
[2] = strain ATCC 17961, OD600 growth over 16 h, read-out: A. baumannii ATCC 17961 IC90

Row | SMILES | IC90 [1] [µM] | IC90 [2] [µM]
1 | Cc1cc(Nc2nccn3c(-c4c[nH]nc4C(F)(F)F)cnc23)ccc1C(=O)N1CCN(C(=O)[C@H]2CCNC[C@@H]2O)CC1 [Example 465, formic acid; [4-[(3R,4S)-3-hydroxypiperidine-4-carbonyl]piperazin-1-yl]-[2-methyl-4-[[3-[3-(trifluoromethyl)-1H-pyrazol-4-yl]imidazo[1,2-a]pyrazin-8-yl]amino]phenyl]methanone] | 1.62 | 
2 | Cc1cc(Nc2nccn3c(-c4cn(C)nc4C(F)(F)F)cnc23)ccc1C(=O)N1CCN(C(=O)N[C@@H]2CNC[C@H]2O)CC1 [Example 469, formic acid; N-[(3R,4R)-4-hydroxypyrrolidin-3-yl]-4-[2-methyl-4-[[3-[1-methyl-3-(trifluoromethyl)pyrazol-4-yl]imidazo[1,2-a]pyrazin-8-yl]amino]benzoyl]piperazine-1-carboxamide] | 0.705 | 
3 | Cc1cc(Nc2nccn3c(-c4cn(C)nc4C(F)(F)F)cnc23)ccc1C(=O)N1CCN(C(=O)N[C@H]2CNC[C@@H]2O)CC1 [Example 470, formic acid; N-[(3S,4S)-4-hydroxypyrrolidin-3-yl]-4-[2-methyl-4-[[3-[1-methyl-3-(trifluoromethyl)pyrazol-4-yl]imidazo[1,2-a]pyrazin-8-yl]amino]benzoyl]piperazine-1-carboxamide] | 0.793 | 
4 | Cc1cc(Nc2nccn3c(-c4cn(C)nc4C(F)(F)F)cnc23)ccc1C(=O)N1CCN(C(=O)C2(O)CCNCC2)CC1 [Example 471, formic acid; [4-(4-hydroxypiperidine-4-carbonyl)piperazin-1-yl]-[2-methyl-4-[[3-[1-methyl-3-(trifluoromethyl)pyrazol-4-yl]imidazo[1,2-a]pyrazin-8-yl]amino]phenyl]methanone] | 1.1 | 
5 | Cc1cc(Nc2nccn3c(-c4cn(C)nc4C(F)(F)F)cnc23)ccc1C(=O)N1CCN(C(=O)[C@@H]2C[C@](C)(O)CN2)CC1 [Example 472, formic acid; [4-[(2S,4S)-4-hydroxy-4-methylpyrrolidine-2-carbonyl]piperazin-1-yl]-[2-methyl-4-[[3-[1-methyl-3-(trifluoromethyl)pyrazol-4-yl]imidazo[1,2-a]pyrazin-8-yl]amino]phenyl]methanone] | 1.24 | 
6 | Cc1cc(Nc2nccn3c(-c4cn(C)nc4C(F)(F)F)cnc23)ccc1C(=O)N1CCN(C(=O)[C@@H]2C[C@@H](O)CN2)CC1 [Example 473, formic acid; [4-[(2S,4R)-4-hydroxypyrrolidine-2-carbonyl]piperazin-1-yl]-[2-methyl-4-[[3-[1-methyl-3-(trifluoromethyl)pyrazol-4-yl]imidazo[1,2-a]pyrazin-8-yl]amino]phenyl]methanone] | 1.29 | 
7 | Cc1cc(Nc2nccn3c(-c4cn(C)nc4C(F)(F)F)cnc23)ccc1C(=O)N1CCN(C(=O)[C@@H]2CCNC[C@@H]2O)CC1 [Example 474, formic acid; [4-[(3R,4R)-3-hydroxypiperidine-4-carbonyl]piperazin-1-yl]-[2-methyl-4-[[3-[1-methyl-3-(trifluoromethyl)pyrazol-4-yl]imidazo[1,2-a]pyrazin-8-yl]amino]phenyl]methanone] | 1.34 | 
8 | Cc1cc(Nc2nccn3c(-c4cn(C)nc4C(F)(F)F)cnc23)ccc1C(=O)N1CCN(C(=O)[C@H]2CCNC[C@H]2O)CC1 [Example 475, formic acid; [4-[(3S,4S)-3-hydroxypiperidine-4-carbonyl]piperazin-1-yl]-[2-methyl-4-[[3-[1-methyl-3-(trifluoromethyl)pyrazol-4-yl]imidazo[1,2-a]pyrazin-8-yl]amino]phenyl]methanone] | 1.64 | 
9 | Cc1cc(Nc2nccn3c(-c4cn(C)nc4C(F)(F)F)cnc23)ccc1C(=O)N1CCN(C(=O)[C@H]2C[C@H](O)CN2)CC1 [Example 476, formic acid; [4-[(2R,4S)-4-hydroxypyrrolidine-2-carbonyl]piperazin-1-yl]-[2-methyl-4-[[3-[1-methyl-3-(trifluoromethyl)pyrazol-4-yl]imidazo[1,2-a]pyrazin-8-yl]amino]phenyl]methanone] | 2.01 | 
10 | Cc1cc(Nc2nccn3c(-c4cn(C)nc4C(F)(F)F)cnc23)ccc1C(=O)N1CCN(C(=O)[C@@H]2CCNC[C@H]2O)CC1 [Example 477, formic acid; [4-[(3S,4R)-3-hydroxypiperidine-4-carbonyl]piperazin-1-yl]-[2-methyl-4-[[3-[1-methyl-3-(trifluoromethyl)pyrazol-4-yl]imidazo[1,2-a]pyrazin-8-yl]amino]phenyl]methanone] | 3.24 | 
11 | Cc1cc(Nc2nccn3c(-c4cn(C)nc4C(F)(F)F)cnc23)ccc1C(=O)N1CCN(C(=O)[C@H]2CCNC[C@@H]2O)CC1 [Example 478, formic acid; [4-[(3R,4S)-3-hydroxypiperidine-4-carbonyl]piperazin-1-yl]-[2-methyl-4-[[3-[1-methyl-3-(trifluoromethyl)pyrazol-4-yl]imidazo[1,2-a]pyrazin-8-yl]amino]phenyl]methanone] | 3.46 | 
12 | Cc1cc(Nc2nccn3c(-c4c[nH]nc4C(F)(F)F)cnc23)ccc1C(=O)N1CCN(C(=O)[C@@H]2C[C@@H](O)CN2)CC1 [Example 479, [4-[(2S,4R)-4-hydroxypyrrolidine-2-carbonyl]piperazin-1-yl]-[2-methyl-4-[[3-[3-(trifluoromethyl)-1H-pyrazol-4-yl]imidazo[1,2-a]pyrazin-8-yl]amino]phenyl]methanone hydrochloride] |  | 0.624
13 | Cc1cc(Nc2nccn3c(-c4c[nH]nc4C(F)(F)F)cnc23)ccc1C(=O)N1CCNCC1 [Example 480, [2-methyl-4-[[3-[3-(trifluoromethyl)-1H-pyrazol-4-yl]imidazo[1,2-a]pyrazin-8-yl]amino]phenyl]-piperazin-1-ylmethanone] |  | 1.84
14 | N#CCn1cc(-c2cnc3c(Nc4ccc(C(=O)N5CCN(C(=O)[C@H]6[C@@H]7CNC[C@@H]76)CC5)c(Cl)c4)nccn23)c(C(F)(F)F)n1 [Example 481, 2-(4-(8-((4-(4-((1R,5S,6r)-3-azabicyclo[3.1.0]hexane-6-carbonyl)piperazine-1-carbonyl)-3-chlorophenyl)amino)imidazo[1,2-a]pyrazin-3-yl)-3-(trifluoromethyl)-1H-pyrazol-1-yl)acetonitrile formate] |  | 0.117
15 | CCc1cc(Nc2nccn3c(-c4cn(CC#N)nc4C(F)(F)F)cnc23)ccc1C(=O)NCCCNC(=O)[C@H]1C[C@@H](N)C1 [Example 482, N-(3-((1s,3s)-3-aminocyclobutane-1-carboxamido)propyl)-4-((3-(1-(cyanomethyl)-3-(trifluoromethyl)-1H-pyrazol-4-yl)imidazo[1,2-a]pyrazin-8-yl)amino)-2-ethylbenzamide formate] |  | 0.174
16 | CCc1cc(Nc2nccn3c(-c4cn(CC#N)nc4C(F)(F)F)cnc23)ccc1C(=O)NCCCNC(=O)[C@@H]1CC[C@H](N)C1 [Example 483, N-(3-((1R,3S)-3-(l2-azaneyl)cyclopentane-1-carboxamido)propyl)-4-((3-(1-(cyanomethyl)-3-(trifluoromethyl)-1H-pyrazol-4-yl)imidazo[1,2-a]pyrazin-8-yl)amino)-2-ethylbenzamide formate] | 0.194 | 
17 | CCc1cc(Nc2nccn3c(-c4cn(CC#N)nc4C(F)(F)F)cnc23)ccc1C(=O)NCCCNC(=O)[C@H]1CC[C@@H](N)C1 [Example 484, N-(3-((1S,3R)-3-aminocyclopentane-1-carboxamido)propyl)-4-((3-(1-(cyanomethyl)-3-(trifluoromethyl)-1H-pyrazol-4-yl)imidazo[1,2-a]pyrazin-8-yl)amino)-2-ethylbenzamide formate] |  | 0.154
18 | CCc1cc(Nc2nccn3c(-c4cn(CC(F)F)nc4C(F)(F)F)cnc23)ccc1C(=O)NCCCNC(=O)[C@H]1CC[C@@H](N)C1 [Example 485, N-(3-((1S,3R)-3-aminocyclopentane-1-carboxamido)propsl)-4-((3-(1-(2,2-difluoroethyl)-3-(trifluoromethyl)-1H-pyrazol-4-yl)imidazo[1,2-a]pyrazin-8-yl)amino)-2-ethylbenzamide formate] | 0.189 | 
19 | CCc1cc(Nc2nccn3c(-c4cn(CC#N)nc4C(F)(F)F)cnc23)ccc1C(=O)NCCNC(=O)C1CCNCC1 [Example 486, N-(2-(4-((3-(1-(cyanomethyl)-3-(trifluoromethyl)-1H-pyrazol-4-yl)imidazo[1,2-a]pyrazin-8-yl)amino)-2-ethylbenzamido)ethyl)piperidine-4-carboxamide formate] |  | 0.208
20 | CCc1cc(Nc2nccn3c(-c4cn(CC#N)nc4C(F)(F)F)cnc23)ccc1C(=O)NCCNC(=O)[C@H]1C[C@H](N)C1 [Example 487, N-(2-((1r,3r)-3-aminocyclobutane-1-carboxamido)ethyl)-4-((3-(1-(cyanomethyl)-3-(trifluoromethyl)-1H-pyrazol-4-yl)imidazo[1,2-a]pyrazin-8-yl)amino)-2-ethylbenzamide formate] |  | 0.171
21 | CCc1cc(Nc2nccn3c(-c4cn(CC(F)F)nc4C(F)(F)F)cnc23)ccc1C(=O)NCCNC(=O)[C@H]1C[C@H](N)C1 [Example 488, N-(2-((1r,3r)-3-aminocyclobutane-1-carboxamido)ethyl)-4-((3-(1-(2,2-difluoroethyl)-3-(trifluoromethyl)-1H-pyrazol-4-yl)imidazo[1,2-a]pyrazin-8-yl)amino)-2-ethylbenzamide formate] |  | 0.147
22 | CCc1cc(Nc2nccn3c(-c4cn(CC(F)F)nc4C(F)(F)F)cnc23)ccc1C(=O)NCCNC(=O)N1CC[C@H](N)C1 [Example 489, (S)-3-amino-N-(2-(4-((3-(1-(2,2-difluoroethyl)-3-(trifluoromethyl)-1H-pyrazol-4-yl)imidazo[1,2-a]pyrazin-8-yl)amino)-2-ethylbenzamido)ethyl)pyrrolidine-1-carboxamide formate] |  | 0.184
